Results: patent publication US10624883B2, “Pulmonary hypertension preventative or therapeutic agent containing component exhibiting selenoprotein P activity-inhibiting effect” (priority 2016, dated 2020)
“Also recorded” adds a separate entry of the source.

Assays:
[1] = tested on: hypoxia-induced pulmonary hypertension mouse model; experiment: Hypoxia-induced pulmonary hypertension mouse model (RVSP, right ventricular hypertrophy); assay type: in vivo; conditions: 10% O2 hypoxia, day 28
Method: Eight-week-old male C57BL6/J mice (n=8 per group) were administered sanguinarine (5 mg/kg/day, daily for 28 days, oral administration). A product available from SSX (Cat. No. 1845, Sanguinarine Chloride 10 mg) was used as sanguinarine. A preparation method for a test solution for a treatment group was as follows: sanguinarine was first dissolved at 100 μg/μl in 100% DMSO and the solution was further dissolved in phosphate buffered saline (PBS) so that the final concentration of sanguinarine was 1 μg/μl. A test solution for a control group was prepared by dissolving DMSO at the same concentration in PBS (1% DMSO).
From the test starting day, the mice were bred under a 10% O2 hypoxic environment to generate a hypoxia-induced pulmonary hypertension mouse model. From the same day, the test solutions for the control group and the treatment group were directly administered into the stomachs of the mice once daily through the use of a probe for mice. Regarding doses, the mice were measured for their body weights daily during a test period, and doses were calculated separately for the mice so as to achieve 5 mg/kg/day.
An administration period (=hypoxic breeding period) was 28 days.
After daily administration for 28 days, pulmonary hemodynamics and right ventricular hypertrophy were assessed at the end point (on day 28 after the start of hypoxic stimulation). The assessment of pulmonary hemodynamics was performed by directly measuring right ventricular systolic pressure (RVSP) with a pressure measurement catheter (Transonic Scisense) inserted into the right jugular vein. In addition, the assessment of right ventricular hypertrophy was performed by measuring right ventricular free wall (RV) weight in a dissected heart tissue to calculate its ratio to left ventricle plus septum (LV+Septum) weight (RV/(LV+Septum)). RV/(LV+Septum) serves as an indicator of right ventricular hypertrophy. A larger numerical value for RV/(LV+Septum) indicates a higher degree of right ventricular hypertrophy. In addition, in order to assess pulmonary vascular remodeling, staining for α-smooth muscle actin (α-SMA) in a lung tissue section was performed on day 28. Pulmonary vascular remodeling was assessed by performing immunostaining for α-smooth muscle actin (α-SMA) in a lung tissue section and quantitatively assessing the extent of muscularization (classified into three stages, i.e., non-muscularization, partial muscularization, and full muscularization) of α-SMA-positive distal pulmonary arteries. Specifically, in each section, about 100 pulmonary arteries having diameters of from 20 μm to 70 μm were each assessed for a double elastic lamina. In this assessment, a pulmonary artery in which a double elastic lamina including an internal elastic lamina and an external elastic lamina was visible for less than 50% of the entire periphery of the pulmonary artery was considered non-muscularized, a pulmonary artery in which the double elastic lamina was visible for 50% or more and less than 100% of the entire periphery of the pulmonary artery was considered partially muscularized, and a pulmonary artery in which the double elastic lamina was visible throughout the entire periphery of the pulmonary artery was considered fully muscularized.
Eight-week-old male C57BL6/J mice (n=8 per group) were administered cinobufotalin (5 mg/kg/day, daily for 28 days, intraperitoneal administration). A product available from Sigma (Cat. No. C1147-10MG, Cinobufotalin 10 mg) was used as cinobufotalin. A preparation method for a test solution for a treatment group was as follows: cinobufotalin was first dissolved at 30 μg/μl in 100% DMSO and the solution was further dissolved in PBS so that the final concentration of cinobufotalin was 0.3 μg/μl. A test solution for a control group was prepared by dissolving DMSO at the same concentration in PBS (1% DMSO). […]

selenoprotein P protein = experiment: Western blotting of selenoprotein P protein in lungs of hypoxia-induced pulmonary hypertension mice; assay type: in vivo, mouse; conditions: C57BL/6 mice, 5 mg/kg/day oral, daily for 28 days, 10% hypoxia
Method: In addition, regarding sanguinarine, C57BL/6 mice (n=8 per group) were administered sanguinarine (5 mg/kg/day, daily for 28 days, oral administration). At the same time, the mice were bred under a 10% hypoxic environment. Thus, a hypoxia-induced pulmonary hypertension mouse model was generated and investigated.

Sugen/hypoxia rat model = experiment: Sugen/hypoxia-induced pulmonary hypertension rat model (RVSP, RVH); assay type: in vivo; conditions: 5 mg/kg oral for 28 days, started day 21 after hypoxia+SU5416
Method: In this test, littermates or vehicle treatment groups were used as controls. A Sugen/hypoxia-induced hypertension rat model was used to assess pulmonary hypertension (PH) (Non-patent Literature 4). In order to assess the development of pulmonary hypertension, right ventricular systolic pressure (RVSP) and right ventricular hypertrophy (RVH) were measured (Non-patent Literatures 4 to 6).
For right heart catheterization, a 1.4-F (for rats) pressure measurement catheter (Transonic Scisense) was inserted into the right jugular vein and advanced into the right ventricle to measure RVSP (Non-patent Literature 7).
In the Sugen/hypoxia model, rats (Sprague-Dawley, male, 7- to 10-week-old) were injected subcutaneously with a VEGF-receptor inhibitor SU5416 (Sigma-Aldrich, St Louis, Mo.) (20 mg per kg body weight) under isoflurane anesthesia and were then exposed to hypoxia (10% O2) for 3 weeks. […] All data were analyzed using the PowerLab data acquisition system (AD Instruments, Bella Vista, Australia) and were averaged over 50 sequential beats (Non-patent Literatures 4 to 6).
Formaldehyde-fixed dry hearts were dissected and the right ventricular free wall (RV) was removed from the left ventricle (LV) and septum. The ratio of right ventricular free wall (RV) weight to left ventricle plus septum (LV+Septum) weight [RV/(LV+S)] was measured to assess the extent of RVH (Non-patent Literature 4). […]

SeP = SeP protein levels in lungs of Sugen/hypoxia rats; assay type: in vivo, rat; conditions: 5 mg/kg oral for 28 days, hypoxia+SU5416 rats
Method: (§1) Rats (Sprague-Dawley, male, 7- to 10-week-old) were injected subcutaneously with a VEGF-receptor inhibitor SU5416 (Sigma-Aldrich) (20 mg per kg body weight) under isoflurane anesthesia and were then exposed to hypoxia (10% O2) for 3 weeks (hypoxia+SU5416). On day 21, the rats were randomized to be orally administered sanguinarine (5 mg per kg body weight) or vehicle under normoxia (21% O2) for 4 weeks. The vehicle administration group is expressed as vehicle controls. In addition, rats injected with saline on day 1 and exposed to normoxia for 7 weeks were used as (normoxic) controls. […] On day 49, the rats were anesthetized with isoflurane (1.0%) to measure RVSP, RVH, and pulmonary vascular remodeling. Thus, the development of PH was assessed.
FIG. 10(D) includes an image and graph for showing quantification of SeP protein levels in normoxic control rats or hypoxia+SU5416 rats with or without sanguinarine treatment. Data represent the mean±SEM. *p<0.05. Comparisons of parameters were performed with one-way or two-way ANOVA and Tukey's HSD test for multiple comparisons.

[2] = Body weight and food consumption in Sugen/hypoxia rats; assay type: in vivo, rat; conditions: 5 mg/kg oral for 28 days
Method: as §1
FIG. 10(B) is a graph for showing the time-course of body weight from the starting point of administration of sanguinarine or vehicle for 4 weeks in Sugen/hypoxia rats (n=12). Data represent the mean±SEM.

[3] = 5 mg/kg/day intraperitoneal, daily for 28 days
[4] = 1 mg/kg/day intraperitoneal, alternate days for 28 days
[5] = 5 mg/kg/day oral, daily for 28 days

Q: For `CC(=O)OC1C(c2ccc(=O)oc2)C2(C)CCC3C(CCC4(O)CC(O)CCC34C)C23OC13` [cinobufotalin, [(1R,2R,2aR,3aS,5aS,7S,9aR,11aR)-5a,7-dihydroxy-9a,11a-dimethyl-1-(2-oxo-2H-pyran-5-yl)hexadecahydronaphtho[1′,2′:6,7]indeno[1,7a-b]oxiren-2-yl acetate]], which “right ventricular hypertrophy (RV/(LV+Septum)) vs control group” value [1, 3] is on record?
A: significantly reduced

Q: What about the “right ventricular systolic pressure vs control group” value [1, 3] of the same compound?
A: significantly reduced

Q: Which “right ventricular hypertrophy (RV/(LV+Septum)) vs control group” value [1, 4] does the source give for `COC(=O)[C@]1(C)CC[C@]2(C)CC[C@]3(C)C4=CC=C5C(=CC(=O)C(O)=C5C)[C@]4(C)CC[C@@]3(C)[C@@H]2C1` [pristimerin, methyl (2R,4aS,6aS,12bR,14aS,14bR)-10-hydroxy-2,4a,6a,9,12b,14a-hexamethyl-11-oxo-1,2,3,4,4a,5,6,6a,11,12b,13,14,14a,14b-tetradecahydropicene-2-carboxylate] here?
A: significantly reduced

Q: And the “right ventricular systolic pressure vs control group” value [1, 4]?
A: significantly reduced

Q: Which “selenoprotein P protein expression in the lungs vs control” value (selenoprotein P protein) does the source give for `C[n+]1cc2c3c(ccc2c2ccc4cc5c(cc4c21)OCO5)OCO3` [sanguinarine] here?
A: significantly suppressed

Q: And the “right ventricular hypertrophy (RV/(LV+Septum)) vs control group” value [1, 5]?
A: significantly reduced

Q: What about the “right ventricular systolic pressure vs control group” value [1, 5] of the same compound?
A: significantly reduced

Q: And the “RVH [RV/(LV+S)] vs vehicle controls” value (Sugen/hypoxia rat model)?
A: reduced

Q: And the “RVSP vs vehicle controls” value (Sugen/hypoxia rat model)?
A: reduced

Q: What about the “SeP expression in the lungs” value (SeP) of the same compound?
A: significantly reduced

Q: What about the “influence on body weight vs vehicle control” value [2] of the same compound?
A: no significant differences; also recorded: no influence

Q: What about the “influence on food consumption vs vehicle control” value [2] of the same compound?
A: no significant differences; also recorded: no influence
